Experimental data taken from article PMC6359144 (International Journal of Molecular Sciences, 2019).
Like-named read-outs stand apart in the source and are kept apart here.

Legend:
518A2 melanoma cells [1] = experiment: MTT assay, 518A2 melanoma cells; type: cell-based, human; conditions: for IC50: Homo sapiens, MTT, mean ± SD of four experiments; for effect on viability of 518A2 melanoma cells: concentrations as high as 50 µM; for IC50 after 72 h compared with IC50 after 24 h: 518A2 melanoma cells, fold lower
Method: (§1) HT-29 (ACC-299), HCT-116 (ACC-581) and DLD-1 (ACC-278) colon carcinoma, MCF-7 (ACC-115) breast carcinoma, KB-V1 (ACC-149), 518A2 (Department of Radiotherapy and Radiobiology, University Hospital Vienna) melanoma and Ea.Hy926 (ATCC no. CRL-2922) HUVEC derived endothelial hybrid cells line were grown in Dulbecco’s Modified Eagle Medium (DMEM; Biochrom), high glucose supplemented with 10% (v/v) fetal bovine serum (FBS; Biochrom.) and 1% (v/v) Antibiotic-Antimycotic solution (anti-anti; Thermo Scientific). HDFa human dermal fibroblasts (ATCC: PCS-201-012™) were grown in DMEM supplemented with 10% FBS, 1% anti-anti and 2 mM glutamine. The cells were incubated at 37 °C, 5% CO2, 95% humidified atmosphere. By repeated addition of topotecan or vinblastine at the maximum tolerated dose to the cell medium of MCF-7 and KB-V1 cells, the cells were rendered multidrug-resistant, indicated as MCF-7^Topo and KB-V1^Vbl, respectively. They were serially passaged following trypsinization by using 0.05% trypsin/0.02% EDTA (Biochrom). Mycoplasma contamination was routinely monitored, and only mycoplasma–free cultures were used.
(§2) MTT [3-(4,5-dimethylthiazol-2-yl)-2,5-diphenyltetrazolium bromide] (ABCR) was used to determine the cytotoxicity of test compounds as previously described. Briefly, HDFa human dermal fibroblasts and Ea.Hy926 endothelial hybrid cells (both 1 × 10^5 cells/mL, 100 µL/well), 518A2 melanoma, KB-V1^Vbl cervix carcinoma, MCF-7^Topo breast carcinoma, HT-29, DLD-1 and HCT-116 colon carcinoma (all 5 × 10^4 cells/mL, 100 µL/well) were grown in 96-well culture plates for 24 h. Then, various concentrations of the test compounds were added and the cells were incubated for 24-72 h at 37 °C. After adding 12.5 µL of a 0.5% MTT solution in PBS (final concentration 0.05%) to cell medium, microplates were incubated for 2 h and subsequently swiftly turned to discard the medium. The precipitate of formazan crystals was then dissolved in a 10% solution of SDS in DMSO containing 0.6% acetic acid. To ensure complete dissolution of formazan, microplates were incubated for at least 4 h at 37 °C. Finally, the absorbance at λ = 570 nm (formazan) and 630 nm (background) was measured using a microplate reader (Tecan F200). All experiments were carried out in quadruplicate and the percentage of viable cells was calculated as the mean ± SD with controls set to 100%. Selected graphs of MTT assays can be found in the Supporting Information (Figure S8).

[2] = tested on: HT-29 colon carcinoma cells; experiment: MTT assay, HT-29 colon carcinoma cells; type: cell-based, human; conditions: for IC50: Homo sapiens, MTT; for effect on viability of HT-29 colon carcinoma cells: concentrations as high as 50 µM
Method: as §1, §2

[3] = tested on: MCF-7^Topo breast adenocarcinoma cells; experiment: MTT assay, MCF-7^Topo breast carcinoma cells; type: cell-based; conditions: Homo sapiens, MCF7/Topo, read-out: IC50 MCF-7^Topo (72 h)
Method: as §1, §2

[4] = tested on: DLD-1 colon carcinoma cells; experiment: MTT assay, DLD-1 colon carcinoma cells; type: cell-based; conditions: Homo sapiens, DLD-1, read-out: IC50 DLD-1 (72 h)
Method: as §1, §2

[5] = tested on: HCT-116 colon carcinoma cells; experiment: MTT assay, HCT-116 colon carcinoma cells; type: cell-based; conditions: Homo sapiens, HCT-116, read-out: IC50 HCT-116 (72 h)
Method: as §1, §2

[6] = tested on: KB-V1^Vbl cervix carcinoma cells; experiment: MTT assay, KB-V1^Vbl cervix carcinoma cells; type: cell-based; conditions: Homo sapiens, read-out: IC50 KB-V1^Vbl (72 h)
Method: as §1, §2

[7] = tested on: Ea.Hy926 endothelial hybrid cells; experiment: MTT assay, Ea.Hy926 endothelial hybrid cells; type: cell-based; conditions: Homo sapiens, EA.hy 926, read-out: IC50 Ea.Hy926 (72 h)
Method: as §1, §2

[8] = target: T1, purified pig brain tubulin (Sus scrofa, UniProt P02550+P02554); experiment: Turbidimetric cell-free tubulin polymerization assay; type: biochemical; conditions: 10 µM, 340 nm
T1 construct: using purified pig brain tubulin; from tissue; host or cells: pig brain
Method: An amount of 50 µL of Brinkley’s buffer 80 (BRB80) supplemented with 20% glycerol and 3 mM GTP was given in a black 96-well half-area plate with clear bottom. Then, test compounds 4d–f (final concentration: 5 µM, or 10 µM) or vehicle (DMSO) were added. After adding 50 µL tubulin in BRB80 (10 mg/mL) was pipetted in the wells and immediately placed in a pre-heated microplate reader (Tecan). The polymerization was determined turbidimetrically at 37 °C by measuring the absorption at 340 nm for 120 min in intervals of 5 min. Values were normally distributed for each group (Shapiro–Wilk test, p > 0.05) and there was homogeneity of variance (Levene’s test, p > 0.05).

[9] = tested on: Ea.Hy926 endothelial hybrid cells; parameters: method as in earlier work; conditions: read-out: IC50 Ea.Hy926 (72 h), MTT, and 34; cited from earlier work
[10] = tested on: HT-29 colon carcinoma cells; parameters: method as in earlier work; conditions: read-out: IC50 HT-29 (72 h), MTT, and 34; cited from earlier work
[11] = tested on: HCT-116 colon carcinoma cells; parameters: method as in earlier work; conditions: read-out: IC50 HCT-116 (72 h), MTT, and 34; cited from earlier work
[12] = tested on: MCF-7^Topo breast adenocarcinoma cells; parameters: method as in earlier work; conditions: read-out: IC50 MCF-7^Topo (72 h), MTT, and 34; cited from earlier work
518A2 melanoma cells [13] = tested on: 518A2 melanoma cells; parameters: method as in earlier work; conditions: read-out: IC50 518A2 (72 h), MTT, and 34; cited from earlier work
[14] = 518A2, read-out: IC50 518A2 (72 h), 72 h
[15] = 518A2, 24 h, read-out: IC50 518A2 (24 h)
[16] = HT-29, read-out: IC50 HT-29 (72 h), 72 h
[17] = HT-29, 24 h, read-out: IC50 HT-29 (24 h)

T1 sequence (P02554 whole entry): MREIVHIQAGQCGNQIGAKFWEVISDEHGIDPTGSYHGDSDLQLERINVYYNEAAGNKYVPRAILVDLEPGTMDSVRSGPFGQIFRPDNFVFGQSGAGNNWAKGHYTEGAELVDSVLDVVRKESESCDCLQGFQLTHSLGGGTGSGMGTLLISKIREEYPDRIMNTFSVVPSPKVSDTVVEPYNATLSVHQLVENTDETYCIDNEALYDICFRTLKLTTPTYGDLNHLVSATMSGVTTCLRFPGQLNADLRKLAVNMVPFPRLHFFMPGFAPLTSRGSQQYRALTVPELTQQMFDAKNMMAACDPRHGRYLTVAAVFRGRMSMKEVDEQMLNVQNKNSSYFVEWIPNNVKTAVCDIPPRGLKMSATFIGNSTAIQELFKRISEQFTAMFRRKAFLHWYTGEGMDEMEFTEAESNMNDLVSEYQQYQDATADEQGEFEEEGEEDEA
T1 sequence (P02550 whole entry): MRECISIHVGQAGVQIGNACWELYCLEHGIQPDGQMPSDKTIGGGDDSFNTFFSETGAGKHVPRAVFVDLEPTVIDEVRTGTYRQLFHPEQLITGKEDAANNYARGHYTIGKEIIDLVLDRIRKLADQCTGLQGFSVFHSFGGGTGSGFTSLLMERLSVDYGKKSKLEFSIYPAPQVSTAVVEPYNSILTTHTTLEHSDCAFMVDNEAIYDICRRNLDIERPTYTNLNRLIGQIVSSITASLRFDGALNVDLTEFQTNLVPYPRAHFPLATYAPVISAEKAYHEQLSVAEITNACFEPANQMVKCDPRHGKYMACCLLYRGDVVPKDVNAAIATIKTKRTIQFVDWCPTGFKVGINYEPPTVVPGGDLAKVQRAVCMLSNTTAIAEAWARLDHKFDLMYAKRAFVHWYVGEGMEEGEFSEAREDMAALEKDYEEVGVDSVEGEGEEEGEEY

Structure (SMILES)	IC50 (518A2 melanoma cells [1]; [14]) [µM]	IC50 (518A2 melanoma cells [1]; [15]) [µM]	effect on viability of 518A2 melanoma cells (518A2 melanoma cells [1])	IC50 [2, 16] [µM]	IC50 [2, 17] [µM]	effect on viability of HT-29 colon carcinoma cells [2]	IC50 [3] [µM]	IC50 after 72 h compared with IC50 after 24 h (518A2 melanoma cells [1])	melting point [°C]	IC50 [4] [µM]	IC50 [5] [µM]	IC50 [6] [µM]	IC50 [7] [µM]	inhibition of tubulin polymerization [8]	IC50 [9] [µM]	IC50 [10] [µM]	IC50 [11] [µM]	IC50 [12] [µM]	IC50 (518A2 melanoma cells [13]) [µM]
CCOC(=O)CCCOc1cc(-c2ocnc2-c2cc(OC)c(OC)c(OC)c2)ccc1OC [3g, Ethyl 4-[1-methoxy-4-(4’-(3’’,4’’,5’’-trimethoxyphenyl)oxazol-5’-yl)-2-phenoxy]butyrate]	> 50	> 100	did not affect the viability	> 50	> 100	did not affect the viability													
COc1ccc(-c2ocnc2-c2cc(Cl)c(OC)c(OC)c2)cc1OCCCC(=O)NO [4a, N-Hydroxy-4-[1-methoxy-4-(4’-(3’’-chloro-4’’,5’’-dimethoxyphenyl)oxazol-5’-yl)-2-phenoxy]butanamide]	0.11 ± 0.01	1.3 ± 0.4		2.9 ± 0.3	2.5 ± 0.4		0.66 ± 0.14	about eight-fold	171 to 172	0.34 ± 0.01	0.21 ± 0.01	0.15 ± 0.02	0.0012 ± 0.0006						
COc1ccc(-c2ocnc2-c2cc(Cl)c(OC)c(OC)c2)cc1OCCCCC(=O)NO [4b, N-Hydroxy-5-[1-methoxy-4-(4’-(3’’-chloro-4’’,5’’-dimethoxyphenyl)oxazol-5’-yl)-2-phenoxy]pentanamide]	1 ± 0.1	10.4 ± 5.1		3.6 ± 0.1	4.2 ± 0.2		2.9 ± 0.8		202	3.2 ± 0.1	2.4 ± 0.1	4 ± 0.2	0.57 ± 0.07						
COc1ccc(-c2ocnc2-c2cc(Cl)c(OC)c(OC)c2)cc1OCCCCCC(=O)NO [4c, N-Hydroxy-6-[1-methoxy-4-(4’-(3’’-chloro-4’’,5’’-dimethoxyphenyl)oxazol-5’-yl)-2-phenoxy]hexanamide]	2.2 ± 0.3	9.4 ± 1.4		4.9 ± 0.3	4.6 ± 0.3		6.1 ± 0.7		189	3.3 ± 0.5	6.5 ± 0.3	18.4 ± 3.4	7.5 ± 0.5						
COc1ccc(-c2ocnc2-c2cc(OC)c(OC)c(OC)c2)cc1OCCCC(=O)NO [4g, N-Hydroxy-4-[1-methoxy-4-(4’-(3’’,4’’,5’’-trimethoxyphenyl)oxazol-5’-yl)-2-phenoxy]butanamide]	0.64 ± 0.07	4.4 ± 0.1		2.8 ± 0.2	5 ± 0.2		9.3 ± 0.8	about eight-fold		0.92 ± 0.04	0.92 ± 0.12	2.7 ± 0.2	0.41 ± 0.04						
COc1ccc(-c2ocnc2-c2cc(OC)c(OC)c(OC)c2)cc1OCCCCC(=O)NO [4h, N-Hydroxy-5-[1-methoxy-4-(4’-(3’’,4’’,5’’-trimethoxyphenyl)oxazol-5’-yl)-2-phenoxy]pentanamide]	5.6 ± 0.6	21.6 ± 3.9		6.6 ± 0.6	53.9 ± 12		39.6 ± 5.9		118 to 120	5.8 ± 0.4	3.4 ± 0.4	11.1 ± 1.6	3.4 ± 0.2						
COc1ccc(-c2ocnc2-c2cc(OC)c(OC)c(OC)c2)cc1OCCCCCC(=O)NO [4i, N-Hydroxy-6-[1-methoxy-4-(4’-(3’’,4’’,5’’-trimethoxyphenyl)oxazol-5’-yl)-2-phenoxy]hexanamide]	3.3 ± 0.3	6.9 ± 2.5		1.7 ± 0.1	47.6 ± 10.6		15.8 ± 1.4			1.3 ± 0.1	0.61 ± 0.07	9 ± 0.3	1.7 ± 0.1						
COc1ccc(-c2ocnc2-c2cc(OC)c(OC)c(OC)c2)cc1OCCCC(=O)O [4j, 4-[1-Methoxy-4-(4’-(3’’,4’’,5’’-trimethoxyphenyl)oxazol-5’-yl)-2-phenoxy]butyric acid]	> 50	> 100	did not affect the viability	> 100	> 100	did not affect the viability													
COc1ccc(/C=C\c2cc(OC)c(OC)c(OC)c2)cc1O [CA-4, Combretastatin A-4]														significant inhibition of tubulin polymerization	0.011 ± 0.002	3.6 ± 0.1	0.0026 ± 0.0002	0.5 ± 0.2	0.018 ± 0.007
